Measured values from patent US9045563B2, “CXC chemokine receptor 4 (CXCR4) antagonistic polypeptide” (priority 2007, dated 2015).
Ends that are not written are not given here.

Tests used:
[1] = tested on: X4 tropic HIV-1 variants NL4-3, P51-Sc, P59-S/27 and P34-S; conditions: TZM-bl cells
Method: 5000 TZM-bl cells were seeded in 100 μl of DMEM (10% FCS, 100 U/ml of penicillin G and 100 μg/ml of streptomycin sulfate). ALB408-423 was dissolved in PBS (10 mg/ml). One day later, 20 μl serial dilutions of ALB408-423 in PBS were added to cells and cells were subsequently infected with 0.5 ng of p24 antigen HIV-1 in a total volume of 200 μl. HIV-1 molecular clones differing in coreceptor tropism were used and generated as described (Papkalla et al., J. Virol. 76: 8455-9, 2002).
FIG. 3: Chemically synthesized ALB408-423 specifically blocks X4 tropic HIV-1 infection. TZM-bl cells containing indicated dilutions of peptide were infected with HIV-1 variants differing in their coreceptor tropism. 3 days later Gal Screen assay was used to measure infection rates. […] B) Infection rates in the presence of 500 μg/ml ALB408-423 showing that the peptide specifically blocks X4 but not R5 tropic HIV-1 infection. Data shown are mean values±standard deviation derived from triplicate infections relative to PBS containing cells (100% infection).
After 3 days, infection was detected using GalScreen assay (TROPIX) (example 1). […] In contrast, CCR5 tropic HIV-1 variants were not inhibited even in the presence of very high doses of ALB408-423 (500 μg/ml) (FIG. 3B). Due to the specific inhibition of the infection caused by X4-tropic HIV-1 variants, it is to be assumed that ALB408-423 interacts with the chemokine receptor CXCR4.
Virus stocks were first titrated on TZM-bl cells. Then TZM-bl cells containing 100 μM of peptides were infected with infectivity normalized amounts of X4, dualtropic (X4/R5) or R5 tropic HIV-1.
FIG. 10. ALB408-423 and truncated ALB derivatives specifically block X4 tropic HIV-1 infection. TZM-bl cells either containing PBS or 100 μM of indicated peptides were infected with normalized infectivities of X4, dualtropic or R5 tropic HIV-1 clones. Infection rates were measured 2 days post infection using the GalScreen assay. Shown are mean values (% of PBS treated control)±standard deviations derived from triplicate measurements.

[2] = tested on: X4 tropic HIV-2ROD10; conditions: read-out: IC50, X4 tropic HIV-2 infection (Example 5), TZM-bl cells
Method: Two days later infection rates were determined and calculated as described.
After three days infection rates were determined using the Gal Screen assay. Shown are mean values±standard deviation derived from triplicate measurements.

[3] = molecular target: CXCR4 (Homo sapiens, UniProt P61073); assay: CXCR4 internalization, confocal microscopy of HEK cells expressing EGFP-CXCR4; type: cell-based; set-up: expressed in transfected cells; host or cells: HEK293; conditions: 30 min, 37° C.
Source text: Upon stimulation with the appropriate chemokine, numerous G-protein-coupled receptors get internalized by clathrin-coated pits. As an antagonist of CXCR4 responses, ALB 408-423 may also alter chemokine induced CXCR4 receptor internalization. To analyze the antagonistic properties of ALB408-423 on CXCL12 mediated CXCR4 internalization, EGFP-CXCR4 receptor expressing cells were split and grown for 2 days in 24-well plates on 12-mm glass coverslips coated with rat type I collagen. The cells were then incubated for periods ranging from 0 to 30 min in HEPES-BSA buffer supplemented with protease inhibitors containing either 100 nM CXCL12 or 50 μM of ALB408-423 or 100 nM CXCL12 plus 50 μM of ALB408-423 at 37° C. […] Cells were then analyzed with an inverted microscope (LEICA) and a laser scanning confocal imaging system (LEICA AOBS SP2 MP) using a HCX PL APO 1bd.BL 63X 1.40 OIL UV objective (n° 506192). […] EGFP was excited with the 488 nm laser-line of the Argon laser and detected and amplified by one photomultiplier tube (PMT) in the so-called mCFP Channel from 495 to 550 nm (PMT1 610 High Voltage -HV-, offset 0). […]
FIG. 15. […] Receptor endocytosis was monitored on HEK cells expressing EGFP-CXCR4 and analyzed by confocal microscopy immediately (0 min, upper panel) after addition of CXCL12, ALB408-423 or both compounds, or 30 min later (lower panel). […]

Sequence of CXCR4 (P61073 whole entry): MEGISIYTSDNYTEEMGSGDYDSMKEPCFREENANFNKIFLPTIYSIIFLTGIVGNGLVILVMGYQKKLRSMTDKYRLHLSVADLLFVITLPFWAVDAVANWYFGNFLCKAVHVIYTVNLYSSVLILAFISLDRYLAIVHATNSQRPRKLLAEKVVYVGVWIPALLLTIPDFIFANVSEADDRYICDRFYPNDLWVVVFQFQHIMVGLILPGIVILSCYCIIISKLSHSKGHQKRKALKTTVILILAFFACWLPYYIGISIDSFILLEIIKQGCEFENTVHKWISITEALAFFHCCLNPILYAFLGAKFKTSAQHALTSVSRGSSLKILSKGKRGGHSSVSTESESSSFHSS

LVRYTKKVPQVSTPTL [ALB408-423, LVRYTKKVPQVSTPTL]
mean IC50 over all analyzed X4-tropic HIV-1 variants ([1]; 0.5 ng p24, 3 days, synthetic peptide): 24.2 µg/mL
block of infection by X4 tropic HIV-1 clones (NL4-3, P51-Sc, P34-s) ([1]; 100 μM peptide): almost completely
IC50 [2]: 10 to 20 µM
effect on CXCL12 mediated CXCR4 internalization ([3]; 100 nM CXCL12 plus 50 μM peptide): blocked CXCL12 mediated CXCR4 internalization
CXCR4 internalization by the peptide alone ([3]; 50 μM): did not induce internalization of the receptor
